In paper PMC3261128, “Modulation of phosphofructokinase (PFK) from Setaria cervi, a bovine filarial parasite, by different effectors and its interaction with some antifilarials” (2011):

Assays:
Format in all cases: biochemical
[1] = system: T1, Phosphofructokinase (PFK); conditions: 5000 µM
T1 construct: native enzyme purified from adult female worms

[2] = molecular target: T2, rat liver PFK (phosphofructokinase) (Rattus norvegicus, UniProt P30835); experiment: coupled enzyme assay (NADH oxidation), Ki and Hill plot
T2 construct: gene Pfkl; native enzyme partially purified from rat liver
T2 sequence (P30835 2-780): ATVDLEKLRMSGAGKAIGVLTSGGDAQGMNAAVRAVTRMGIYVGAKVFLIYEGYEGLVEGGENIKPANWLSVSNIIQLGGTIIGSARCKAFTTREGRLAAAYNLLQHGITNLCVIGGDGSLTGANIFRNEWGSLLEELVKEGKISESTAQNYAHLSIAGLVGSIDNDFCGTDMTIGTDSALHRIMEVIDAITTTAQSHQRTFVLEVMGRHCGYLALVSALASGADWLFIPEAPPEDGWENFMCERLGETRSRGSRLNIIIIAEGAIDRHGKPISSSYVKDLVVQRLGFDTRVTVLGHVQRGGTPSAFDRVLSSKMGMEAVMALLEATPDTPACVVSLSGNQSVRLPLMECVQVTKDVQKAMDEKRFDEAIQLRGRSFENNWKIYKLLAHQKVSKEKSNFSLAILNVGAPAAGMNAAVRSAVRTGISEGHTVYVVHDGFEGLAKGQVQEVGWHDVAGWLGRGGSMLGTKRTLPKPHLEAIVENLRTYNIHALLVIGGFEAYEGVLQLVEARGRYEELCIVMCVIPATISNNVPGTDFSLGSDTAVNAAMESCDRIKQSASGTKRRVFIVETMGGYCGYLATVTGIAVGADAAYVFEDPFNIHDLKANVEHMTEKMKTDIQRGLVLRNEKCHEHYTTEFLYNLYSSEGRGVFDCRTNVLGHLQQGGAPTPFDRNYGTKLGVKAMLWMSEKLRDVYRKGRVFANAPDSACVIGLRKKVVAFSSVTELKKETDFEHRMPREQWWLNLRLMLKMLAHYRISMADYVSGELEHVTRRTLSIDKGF
Source text: coupled enzyme assay (NADH oxidation), Ki and Hill plot on rat liver PFK (phosphofructokinase) | inhibition of rat liver PFK was of the non-competitive type (Figure 5A) and the Ki value of suramin

[3] = molecular target: T1, Phosphofructokinase (PFK); experiment: as above

Row | % Residual Activity / 5 [1] | SMILES | Ki [2] [nM] | Ki [3] [nM]
1 | 45 | c1ccc([C@H]2CN3CCSC3=N2)cc1 [Levamisole] |  | 
2 |  | Cc1ccc(C(=O)Nc2ccc(S(=O)(=O)O)c3cc(S(=O)(=O)O)cc(S(=O)(=O)O)c23)cc1NC(=O)c1cccc(NC(=O)Nc2cccc(C(=O)Nc3cc(C(=O)Nc4ccc(S(=O)(=O)O)c5cc(S(=O)(=O)O)cc(S(=O)(=O)O)c45)ccc3C)c2)c1 [suramin] | 40 ± 1 | 1.1 ± 0.1
